Experiments:
MCF7 = assay: Inhibitory activity against MCF-7 breast cell line using sulforhodamine B (SRB) protein assay; assay type: functional, cell-based; conditions: Homo sapiens
U-251 = assay: Inhibitory activity against U251 CNS cell line using sulforhodamine B (SRB) protein assay; assay type: functional, cell-based; conditions: Homo sapiens
K562 = assay: Iinhibitory activity against K562 leukemia cell line using sulforhodamine B (SRB) protein assay; assay type: functional, cell-based; conditions: Homo sapiens
HCT-15 (Homo sapiens) = assay: Inhibitory activity against HCT-15 colon cell line using sulforhodamine B (SRB) protein assay
PC-3 = assay: Inhibitory activity against PC-3 prostate cell line using sulforhodamine B (SRB) protein assay; assay type: functional, cell-based; conditions: Homo sapiens
HCT-15 = assay: Inhibitory activity against HCT-15 colon cell line using sulforhodamine B (SRB) protein assay; assay type: functional, cell-based; conditions: Homo sapiens

SMILES: COc1cccc2c1CCCN1C(=O)[C@@H](Oc3ccccc3)[C@]21SC
- IC50 (MCF7): 33 µM
- IC50 (U-251): 25 µM
- IC50 (K562): 23 µM
- IC50 (HCT-15 (Homo sapiens)): 19 µM
- IC50 (PC-3): 21 µM

SMILES: CS[C@@]12c3cc(C)sc3CC(C)(C)CN1C(=O)[C@H]2Oc1ccccc1
- IC50 (MCF7): 41 µM
- IC50 (U-251): 33 µM
- IC50 (K562): 39 µM
- IC50 (HCT-15): 26 µM
- IC50 (PC-3): 11 µM

SMILES: CS[C@@]12c3cc(C)n(-c4ccc(I)cc4)c3CC(C)(C)CN1C(=O)[C@H]2Oc1ccccc1
- IC50 (MCF7): > 100 µM
- IC50 (U-251): 40 µM
- IC50 (K562): > 100 µM
- IC50 (HCT-15): > 100 µM
- IC50 (PC-3): 87 µM

SMILES: CS[C@@]12c3cc(C)oc3CC(C)(C)CN1C(=O)[C@H]2Oc1ccccc1
- IC50 (MCF7): 47 µM
- IC50 (U-251): 47 µM
- IC50 (K562): 31 µM
- IC50 (HCT-15): 56 µM
- IC50 (PC-3): 53 µM

SMILES: COc1cccc2c1C(=O)c1c(O)c3c(c(O)c1C2=O)C[C@@](O)(C(=O)CO)C[C@@H]3O[C@H]1C[C@H](N)[C@H](O)[C@H](C)O1 [DOXORUBICIN]
- IC50 (U-251): 0.09 µM
- IC50 (K562): 0.28 µM
- IC50 (HCT-15): 0.23 µM
- IC50 (PC-3): 32 µM
